Source: US20230365571A1, “COMPOUNDS AND COMPOSITIONS AS Sppl2a INHIBITORS” (Novartis AG, priority 2020, published 2023)

Columns and labels:
human SPPL2a [1] = target: T1, human SPPL2a (Homo sapiens, UniProt Q8TCT8); assay: Sppl2a TL (translocation) imaging assay in U-2 OS cells; type: cell-based; parameters: expressed in transfected cells; details: U-2 OS cells expressing human SPPL2a and EGFP-TNFα(aa1-76) NTF substrate; 24 h
T1 sequence (Q8TCT8 26-520): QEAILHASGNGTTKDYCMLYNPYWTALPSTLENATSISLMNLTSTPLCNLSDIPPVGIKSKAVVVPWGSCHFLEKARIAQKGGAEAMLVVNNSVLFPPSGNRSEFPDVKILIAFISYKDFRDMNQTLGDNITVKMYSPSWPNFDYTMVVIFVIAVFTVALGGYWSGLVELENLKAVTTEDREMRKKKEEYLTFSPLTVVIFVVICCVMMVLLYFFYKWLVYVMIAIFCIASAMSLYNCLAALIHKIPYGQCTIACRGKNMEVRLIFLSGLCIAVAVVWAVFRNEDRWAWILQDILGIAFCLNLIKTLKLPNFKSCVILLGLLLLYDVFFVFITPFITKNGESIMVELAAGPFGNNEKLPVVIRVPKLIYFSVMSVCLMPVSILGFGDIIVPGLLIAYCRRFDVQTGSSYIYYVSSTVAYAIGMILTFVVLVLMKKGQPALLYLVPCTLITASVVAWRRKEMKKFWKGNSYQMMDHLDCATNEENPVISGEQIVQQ
Method: SPPL2a, TL in U-2 OS Cells. Stable U-2 OS cell lines expressing human SPPL2a constitutively and a EGFP-labeled TNFα(aa1-76) NTF substrate under a doxycycline-regulated promoter were used for the imaging assays. Cells were seeded at 3000 cells/30 μL/384-well in DMEM/GlutaMax™-I (Invitrogen) supplemented with tetracycline-free 10% FBS (Amimed) and incubated at 37° C., 5% CO2 for 3-4 h. Subsequently, 3.3 μL of inhibitors, prediluted in doxycycline-containing medium for 11-point concentration-response curves, were added to each well using a CyBi well liquid handling device (Cybio AG, Jena, Germany) to result in final inhibitor concentrations ranging from 100 μM to 1 nM (final DMSO concentration 0.9% (v/v)) and 5 μg/mL doxycycline). The cells were incubated with inhibitor at 37° C., 5% CO2 for 24 h. Thereafter cell were fixed in 4% PFA/PBS and in parallel, nuclei were stained with Hoechst (Invitrogen) 1:5000 in PBS for 30 min. The plates were imaged using a Cellomics ArrayScan VTI HCS reader with 10×/0.3NA objective (Thermo Fisher Scientific, USA). Six images per well were acquired. Images for the EGFP signal (Ex395, Em509) and the Hoechst nuclear dye (Ex350, Em425) were acquired simultaneously with image analysis using the “Nuclear Translocation” assay algorithm of the Cellomics ArrayScan software. Nuclei were detected based on the Hoechst staining, the nuclear mask was transferred to the EGFP channel, and a 4 pixel wide cytoplasm ring region was defined around the nucleus. The intensity of the EGFP signal was measured both in the nuclear and in the cytoplasm ring region of each individual cell (in general 800-1000 individual cells were analyzed per well), and the difference of the average nuclear versus average cytoplasmic intensity of the EGFP signal was calculated (“CircRingAvgIntenDiffCh2”=“CircAvgIntenCh2”−“RingAvgIntenCh2”). Additionally the number of cells were acquired (feature termed “ValidCellCount”) and used to calculate cell toxicity (CC50). Percent inhibition was calculated relative to the positive (0.5 μM LY-411,575=100% inhibition) and negative (DMSO=0% inhibition) controls. The IC50 value was calculated from the plot of percentage of inhibition vs inhibitor concentration using nonlinear regression analysis software, e.g., Origin (OriginLab Corp.).

human SPPL2a [2] = target: T1, human SPPL2a; assay: Sppl2a RGA (reporter gene assay) in HEK293 cells; type: cell-based; parameters: expressed in transfected cells; host or cells: HEK293 (transient); details: NT-TNF-VP16-Gal4 substrate, Gal4-luciferase reporter, 24 h
Description: Sppl2a RGA (Reporter Gene Assay):
Sppl2a is an intramembrane aspartyl protease with similarities to presenilin, the active subunit of the γ-secretase complex. The assay is based on the coupling of the proteolytic degradation of a membrane bound synthetic substrate (VP16-Gal4 fusion protein with the N-terminal domain of TNF alpha), which migrates to the nucleus upon cleavage, with the Gal4 driven expression of luciferase. Inhibition of Sppl2a results in a reduction of nuclear VP16-Gal4 activator and therefore in a reduction of the production of luciferase. The luciferase dependent-luminescence is plotted against the concentrations of compound to generate a dose response curve, which allows the calculation of the IC50 value.
DNA vectors encoding human Sppl2a, NT-TNF-VP16-Gal4 and a Gal4-luciferase reporter were transiently transfected in HEK293 cells. In a typical experiment 5 μg plasmid for SPPL2a, 10 μg plasmid encoding the reporter Gal4-luciferase and 20 μg plasmid encoding the substrate NT-TF-VP16-Gal4 were mixed together. The DNA mixture was combined with 107 μl FuGENE® (Promega), 735 μl Opti-MEM® (Life Technologies) and incubated for 5 minutes at RT. To this mixture 20 mL of concentrated HEK293 cells were added and thoroughly mixed. The cell suspension was distributed to a white solid 384 well plate. Within 5 hours, 50 nl of compound in DMSO was stamped into the wells via pintool. The plate was incubated for 24 h at 37° C., 5% CO2 in a humidified incubator, before the addition of 25 μl Bright Glo. After incubation at RT for 5 min, the plate was transferred to a luminometer and the luminescence was measured. The IC50 was determined by plotting compound concentration vs. normalized luminescence values.

IC50 (human SPPL2a [1]) [nM] | IC50 (human SPPL2a [2]) [nM] | Structure (SMILES)
2 | 5 | CC(C)NC(=O)c1cc(NC(=O)C[C@H](C(=O)N[C@@H]2C(=O)N3CCCN3Cc3ccccc32)C2CC2)n(C)n1 [Example 67, (S)-2-Cyclopropyl-N^4-(3-(isopropylcarba-moyl)-1-methyl-1H-pyrazol-5-yl)-N^1-((S)-11-oxo-2,3,10,11-tetrahydro-1H,5H-benzo[d]pyrazolo [1,2-a][1,2]diazepin-10-yl)succinamide]
4 | 13 | C[C@H](CC(=O)Nc1cc(NC(=O)C(F)(F)C(F)(F)F)nn1C)C(=O)N[C@@H]1C(=O)N2CCCN2Cc2ccccc21 [Example 70, (R)-2-Methyl-N^4-(1-methyl-3-(2,2,3,3,3-pentafluoropro-panamido)-1H-pyrazol-5-yl)-N^1-((S)-11-oxo-2,3,10,11-tetrahydro-1H,5H-benzo[d]pyrazolo [1,2-a][1,2]diazepin-10-yl)succinamide]
4 | 4 | C[C@H](CC(=O)Nc1cc(-c2cc(C3CC3)no2)nn1C)C(=O)N[C@@H]1C(=O)N2CCCN2Cc2ccccc21 [Example 71, (R)-N^4-(3-(3-Cyclopropylisoxa-zol-5-yl)-1-methyl-1H-pyrazol-5-yl)-2-methyl-N^1-((S)-11-oxo-2,3,10,11-tetrahydro-1H,5H-benzo[d]pyrazolo [1,2-a][1,2]diazepin-10-yl)succinamide]
4 | 9 | C[C@H](CC(=O)Nc1cc(-c2ccc(C(F)(F)F)nc2)nn1C)C(=O)N[C@@H]1C(=O)N2CCCN2Cc2ccccc21 [Example 72, (R)-2-Methyl-N^4-(1-methyl-3-(6-(trifluoromethyl)pyridin-3-yl)-1H-pyrazol-5-yl)-N^1-((S)-11-oxo-2,3,10,11-tetrahydro-1H,5H-benzo[d]pyrazolo [1,2-a][1,2]diazepin-10-yl)succinamide]
4 | 25 | C[C@H](CC(=O)Nc1sc(-c2ccn(C)n2)nc1Cl)C(=O)N[C@@H]1C(=O)N2CCCN2Cc2ccccc21 [Example 73, (R)-N^4-(4-Chloro-2-(1-methyl-1H-pyrazol-3-yl)thiazol-5-yl)-2-methyl-N^1-((S)-11-oxo-2,3,10,11-tetrahydro-1H,5H-benzo[d]pyrazolo [1,2-a][1,2]diazepin-10-yl)succinamide]
4 | 13 | Cc1cncc(-c2cc(NC(=O)C[C@@H](C)C(=O)N[C@@H]3C(=O)N4CCCN4Cc4ccccc43)n(C)n2)c1 [Example 74, (R)-2-Methyl-N^4-(1-methyl-3-(5-methylpyridin-3-yl)-1H-pyrazol-5-yl)-N^1-((S)-11-oxo-2,3,10,11-tetrahydro-1H,5H-benzo[d]pyrazolo [1,2-a][1,2]diazepin-10-yl)succinamide]
5 | 4 | Cc1cncc(-c2cc(NC(=O)C[C@H](C(=O)N[C@@H]3C(=O)N4CCCN4Cc4ccccc43)C3CC3)n(C)n2)c1 [Example 75, (S)-2 Cyclopropyl-N^4-(1-methyl-3-(5-methylpyridin-3-yl)-1H-pyrazol-5-yl)-N^1-((S)-11-oxo-2,3,10,11-tetrahydro-1H,5H-benzo[d]pyrazolo [1,2-a][1,2]diazepin-10-yl)succinamide]
6 | 43 | C[C@@H](CF)NC(=O)c1cc(NC(=O)C[C@H](C(=O)N[C@@H]2C(=O)N3CCCN3Cc3ccccc32)C2CC2)n(C)n1 [Example 78, (S)-2-Cyclopropyl-N^4-(3-(((S)-1-fluoropropan-2-yl)carbamoyl)-1-methyl-1H-pyrazol-5-yl)-N^1-((S)-11-oxo-2,3,10,11-tetrahydro-1H,5H-benzo[d]pyrazolo [1,2-a][1,2]diazepin-10-yl)succinamide]
7 | 10 | Cc1nc(-c2cncc(F)c2)sc1NC(=O)C[C@@H](C)C(=O)N[C@@H]1C(=O)N2CCCN2Cc2ccccc21 [Example 79, (R)-N^4-(2-(5-fluoropyridin-3-yl)-4-methylthiazol-5-yl)-2-methyl-N^1-((S)-11-oxo-2,3,10,11-tetrahydro-1H,5H-benzo[d]pyrazolo [1,2-a][1,2]diazepin-10-yl)succinamide]
8 | 5 | CCc1cc(-c2cc(NC(=O)C[C@@H](C)C(=O)N[C@@H]3C(=O)N4CCCN4Cc4ccccc43)n(C)n2)no1 [Example 81, (R)-N^4-(3-(5-Ethylisoxazol-3-yl)-1-methyl-1H-pyrazol-5-yl)-2-methyl-N^1-((S)-11-oxo-2,3,10,11-tetrahydro-1H,5H-benzo[d]pyrazolo [1,2-a][1,2]diazepin-10-yl)succinamide]
9 | 6 | CCn1nc(-c2ccc(C(F)(F)F)nc2)cc1NC(=O)C[C@@H](C)C(=O)N[C@@H]1C(=O)N2CCCN2Cc2ccccc21 [Example 83, (R)-N^4-(1-Ethyl-3-(6-(trifluoromethyl)pyridin-3-yl)-1H-pyrazol-5-yl)-2-methyl-N^1-((S)-11-oxo-2,3,10,11-tetrahydro-1H,5H-benzo[d]pyrazolo [1,2-a][1,2]diazepin-10-yl)succinamide]
9 | 40 | C[C@H](CC(=O)Nc1cc(C(=O)NCCC(F)(F)F)nn1C)C(=O)N[C@@H]1C(=O)N2CCCN2Cc2ccccc21 [Example 84, (R)-2-Methyl-N^4-(1-methyl-3-((3,3,3-trifluoropropyl)carbamoyl)-1H-pyrazol-5-yl)-N^1-((S)-11-oxo-2,3,10,11-tetrahydro-1H,5H-benzo[d]pyrazolo [1,2-a][1,2]diazepin-10-yl)succinamide]
10 | 4 | CCc1cc(-c2cc(NC(=O)C[C@@H](C)C(=O)N[C@@H]3C(=O)N4CCCN4Cc4ccccc43)n(C)n2)on1 [Example 86, (R)-NA-(3-(3-Ethylisoxazol-5-yl)-1-methyl-1H-pyrazol-5-yl)-2-methyl-N^1-((S)-11-oxo-2,3,10,11-tetrahydro-1H,5H-benzo[d]pyrazolo [1,2-a][1,2]diazepin-10-yl)succinamide]
10 | 10 | C[C@H](CC(=O)Nc1cc(-c2ccc(F)cn2)nn1C)C(=O)N[C@@H]1C(=O)N2CCCN2Cc2ccccc21 [Example 87, (R)-N^4-(3-(5-Fluoropyridin-2-yl)-1-methyl-1H-pyrazol-5-yl)-2-methyl-N^1-((S)-11-oxo-2,3,10,11-tetrahydro-1H,5H-benzo[d]pyrazolo [1,2-a][1,2]diazepin-10-yl)succinamide]
